Data from US11109593B2, “Isoxazolin-5-one derivative and herbicide containing same as active ingredient” (HOKKO CHEMICAL INDUSTRY CO., LTD., priority 2017, dated 2021).

Tests used:
Assay type in all cases: in vivo
Chenopodium album [1] = assay: Test Example 3: herbicidal effect test by treatment of dry field farming soil (one day after seeding); details: 120 g/10a active ingredient, evaluated 14 days after treatment
Procedure, shortened: (§1)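 Herbicidal rate (%) equals 1 minus treated/untreated mean plant dry weight, times 100, taken 14 days after treatment in duplicate pots. Emulsion diluted in water was applied at 100 L per 10 ares (120 g a.i. per 10 ares) one day after sowing 20 seeds per species into the top 1 cm of alluvial soil.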

Amaranthus viridis [2] = assay: as above; details: 120 g/10a active ingredient, evaluated 14 days after treatment
Procedure, shortened: as §1

southern crabgrass [3] = assay: as above; details: 120 g/10a active ingredient, evaluated 14 days after treatment
Procedure, shortened: as §1

Echinochloa crus-galli [4] = assay: as above; details: 120 g/10a active ingredient, evaluated 14 days after treatment
Procedure, shortened: as §1

Chenopodium album [5] = assay: Test Example 4: herbicidal effect test by treatment of leave and stem in dry field farming (seven days after seeding); details: 120 g/10a active ingredient; emulsion sprayed seven days after seeding; evaluated 14 days after treatment
Procedure, shortened: (§2)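 Twenty seeds per species were mixed into the top 1 cm of alluvial soil in 36 cm^2 pots; emulsions were sprayed seven days after seeding at 100 L per 10 ares (120 g active ingredient per 10 ares). Herbicidal rate (%) = {1 − treated/untreated mean dry weight} × 100, 14 days after treatment, duplicate.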

Amaranthus viridis [6] = assay: as above; details: 120 g/10a active ingredient; emulsion sprayed seven days after seeding; evaluated 14 days after treatment
Procedure, shortened: as §2

southern crabgrass [7] = assay: as above; details: 120 g/10a active ingredient; emulsion sprayed seven days after seeding; evaluated 14 days after treatment
Procedure, shortened: as §2

Echinochloa crus-galli [8] = assay: as above; details: 120 g/10a active ingredient; emulsion sprayed seven days after seeding; evaluated 14 days after treatment
Procedure, shortened: as §2

[9] = tested on: broad leaf weeds (Lindernia pyxidaria and Monochoria vaginalis); assay: Test Example 1: herbicidal effect test by treatment of rice paddy soil (immediately after seeding); details: 120 g/10a active ingredient, dry weight vs untreated area, 14 days after treatment
Procedure, shortened: (§3)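 Values are herbicidal rates (%) derived from average plant dry weight in treated versus untreated pots 14 days after treatment, run in duplicate. Treatment was a water-diluted emulsion dropped into flooded paddy soil right after sowing, at 120 g active ingredient per 10 ares.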

Scirpus juncoides [10] = assay: as above; details: 120 g/10a active ingredient, dry weight vs untreated area, 14 days after treatment
Procedure, shortened: as §3

Echinochloa crus-galli [11] = assay: as above; details: 120 g/10a active ingredient, dry weight vs untreated area, 14 days after treatment
Procedure, shortened: as §3

[12] = tested on: broad leaf weeds (Lindernia pyxidaria and Monochoria vaginalis); assay: Test Example 2: herbicidal effect test by treatment during growing period in paddy rice cultivation (seven days after seeding); details: 120 g/10a active ingredient, assessed 14 days after treatment, dry weight vs untreated area
Procedure, shortened: (§4)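 Herbicidal rate (%) = {1 − treated/untreated mean plant dry weight} × 100, assessed in duplicate 14 days post-treatment. Emulsion formulations were diluted in water and dropped onto flooded (about 3 cm) paddy pots 7 days after seeding, giving 120 g a.i. per 10 ares. Plants were grown in a glass greenhouse.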

Scirpus juncoides [13] = assay: as above; details: 120 g/10a active ingredient, assessed 14 days after treatment, dry weight vs untreated area
Procedure, shortened: as §4

Echinochloa crus-galli [14] = assay: as above; details: 120 g/10a active ingredient, assessed 14 days after treatment, dry weight vs untreated area
Procedure, shortened: as §4

Structure (SMILES) | herbicidal rate, Chenopodium album (Chenopodium album [1]) | herbicidal rate, Amaranthus viridis (Amaranthus viridis [2]) | herbicidal rate, southern crabgrass (southern crabgrass [3]) | herbicidal rate, Echinochloa crus-galli (Echinochloa crus-galli [4]) | herbicidal effect (herbicidal rate), Chenopodium album (Chenopodium album [5]) | herbicidal effect (herbicidal rate), Amaranthus viridis (Amaranthus viridis [6]) | herbicidal effect (herbicidal rate), southern crabgrass (southern crabgrass [7]) | herbicidal effect (herbicidal rate), Echinochloa crus-galli (Echinochloa crus-galli [8]) | Herbicidal rate (%) Lindernia pyxidaria [9] | Herbicidal rate (%) Monochoria vaginalis [9] | Herbicidal rate (%) Scirpus juncoides (Scirpus juncoides [10]) | Herbicidal rate (%) Echinochloa crus-galli (Echinochloa crus-galli [11]) | Herbicidal rate (%) Lindernia pyxidaria [12] | Herbicidal rate (%) Monochoria vaginalis [12] | Herbicidal rate (%) Scirpus juncoides (Scirpus juncoides [13]) | Herbicidal rate (%) Echinochloa crus-galli (Echinochloa crus-galli [14])
CCNC(=O)N(c1ccccc1Cc1c(C)n(C(C)c2ccccc2)oc1=O)S(=O)(=O)C(F)(F)F (centres unmarked) [Compound 1-874] | 90% | 90% | 90% | 90% | 40% | 40% | 90% | 90% | 90% | 90% | 90% | 90% | 90% | 90% | 90% | 90%
CCN(CC)C(=O)N(c1ccccc1Cc1c(C)n(C(C)c2ccccc2)oc1=O)S(=O)(=O)C(F)(F)F (centres unmarked) [Compound 1-886] | 90% | 90% | 90% | 90% | 40% | 40% | 90% | 90% | 90% | 90% | 90% | 90% | 90% | 90% | 90% | 90%
Cc1c(Cc2ccccc2N(S(C)(=O)=O)S(=O)(=O)C(F)(F)F)c(=O)on1C(C)C [Compound 1-888] | 60% | 40% | 70% | 90% | 40% | 40% | 40% | 80% | 100% | 90% | 90% | 100% | 80% | 100% | 90% | 90%
Cc1c(Cc2ccccc2N(S(C)(=O)=O)S(=O)(=O)C(F)(F)F)c(=O)on1C(C)(C)C [Compound 1-889] | 90% | 90% | 90% | 90% | 40% | 40% | 90% | 90% | 90% | 90% | 90% | 90% | 90% | 90% | 90% | 90%
CCC(C)n1oc(=O)c(Cc2ccccc2N(S(C)(=O)=O)S(=O)(=O)C(F)(F)F)c1C (centres unmarked) [Compound 1-890] | 90% | 90% | 90% | 90% | 40% | 40% | 90% | 90% | 90% | 90% | 90% | 90% | 90% | 90% | 90% | 90%
Cc1c(Cc2ccccc2N(S(C)(=O)=O)S(=O)(=O)C(F)(F)F)c(=O)on1CC(C)C [Compound 1-892] | 80% | 90% | 90% | 90% | 40% | 40% | 40% | 50% | 90% | 90% | 90% | 100% | 80% | 80% | 90% | 90%
Cc1c(Cc2ccccc2N(S(C)(=O)=O)S(=O)(=O)C(F)(F)F)c(=O)on1CC(C)(C)C [Compound 1-893] | 90% | 90% | 90% | 90% | 40% | 40% | 90% | 90% | 90% | 90% | 90% | 90% | 90% | 90% | 90% | 90%
CCCC(C)n1oc(=O)c(Cc2ccccc2N(S(C)(=O)=O)S(=O)(=O)C(F)(F)F)c1C (centres unmarked) [Compound 1-894] | 60% | 70% | 90% | 90% | 60% | 60% | 90% | 90% | 80% | 60% | 100% | 100% | 70% | 70% | 80% | 90%
